From article PMC10888192, “New Derivatives of 1-(3-Methyl-1-Benzofuran-2-yl)Ethan-1-one: Synthesis and Preliminary Studies of Biological Activity” (International Journal of Molecular Sciences, 2024)

Legend:
[1] = system: SW620 cells (human metastatic colon cancer); experiment: MTT cytotoxicity assay, SW620; type: cell-based; settings: SW-620, 72 h incubation, mean ± SD
Description: (§1) The cell viability was analyzed at the following six concentrations of compounds: 5, 10, 20, 40, 60 and 100 µM after 72 h incubation.
(§2) Additionally, to determine the safety profile of the tested compounds, the therapeutic index (TI) (the ratio of IC50 value in HaCaT to cancer cells K562) was calculated. […] The goal of conducting the MTT assay in this research was to select benzofuran derivatives, which manage to reduce viability of cancer cells while exposing mild effects on normal healthy cells.
(§3) The cytotoxicity was evaluated by MTT reduction assay, which measures mitochondrial respiratory function. The test was performed based on the method described by Präbst et al.. Cells (1 × 10^4/well), in logarithmic phase, were seeded into 96-well plates in appropriate medium. After 24 h, cells were exposed to test compounds. […] After 72 h, the medium with the compounds was completely removed and MTT solution (0.5 mg/mL) in fresh medium without serum was added to each well. Plates with cells were incubated for 4 h at 37 °C in the dark. Then, MTT solution was removed and replenished with 0.1 mL DMSO: isopropanol (1:1) mixture to dissolve the generated formazan crystals. The optical density was measured with a […] GO (ThermoScientific) microplate reader at 570 nm. Replicates of three wells for each dosage, including vehicle control, were analyzed for each experiment. The experiments were conducted in triplicate. Control cells which were only treated with respective medium were used as the 100% viability value. […] Additionally, to determine the safety profile of the test compounds, therapeutic indexes (TI) (the ratio of IC50 values in HaCat to cancer cells (K562, PC3, SW620, Cack-1)) were calculated.

[2] = system: Cacki-1 cells (human clear cell renal cell carcinoma); experiment: MTT cytotoxicity assay, Cacki-1; type: cell-based; settings: 72 h incubation
Description: as §1, §2, §3

[3] = system: K562 cells; experiment: Trypan blue exclusion assay, K562; type: cell-based, human; settings: 72 h; for Cell Number (×10^6): K562, trypan blue, IC50 concentration
Description: The MTT assay assesses the viable cell number based on mitochondrial enzyme activity. […] In the next step of our studies, we analyzed the total cell number and viability after exposure to the selected compounds at IC50 concentration using trypan blue exclusion assay. K562 cells were incubated with tested compounds over 72 h. […] To assess the antiproliferative properties of newly synthesized derivatives, we analyzed the total cell number. […] The parallel experiment was conducted with HaCaT cells. […] The trypan blue test rapidly assesses cell viability indirectly from cell membrane integrity, but some publications have indicated weaknesses of this viability test. […] On the other hand, cell membrane integrity may be affected even while the cell might still be able to repair itself and become fully viable.
To evaluate the antiproliferative effects of the novel benzofurans derivatives the trypan blue exclusion assay was performed. Cells (HaCat, and K562) were seeded into 12-well plates (2 × 10^4 cells/well). After 24 h, cells were exposed to the tested compounds at concentrations of their respective IC50 and incubated for 72h. Then, cells were harvested and centrifugated (500× g, 5min). After centrifugation supernatant was removed and cell sediment was dissolved in 0.2 mL of PBS. Next, 10 µL of cells solution was mixed with 10 µL of trypan blue dye. Cells were counted by automatic cell counter (Countessa). Data obtained were expressed as the mean ± SD and the mean percentage of viable cells was calculated from three independent experiments performed in triplicate.

[4] = system: IL-6 secretion by K562 cells; experiment: IL-6 release, ELISA; type: cell-based, human; settings: for Il-6 Concentration in K562 Cells in 72 h: ELISA, culture medium, IC50 concentration, mean ± SD; for Reduction of the level of IL-6: K562, IC50 concentration, 72 h
Excerpt: Among many soluble factors present in the plasma and tissue microenvironment in patients with chronic lymphatic leukemia recent studies confirmed a presence of few types of interleukin (IL) including 4, 6 and 10. […] IL-6 is a member of a big family of cytokines and is predominantly excreted by T cells and macrophages to stimulate immune response during infection. Studies have shown that elevated levels of serum IL-6 is positively correlated with worse clinical outcomes in patients with different types of cancer, including leukemia. IL-6 also plays a key role in the chemoresistance of malignancies. Based on these findings we checked the effect of our new benzofuran derivatives on IL-6 secretion by K562 cells. […] On the other hand, K562 cells like other erythroid and megakaryocytic cells release IL-6 in a constitutive way.
K562 cells were treated with IC50 concentrations of the tested compounds. After 72 h, medium was collected and the IL-6 level was measured using an enzyme-linked immunosorbent assay, in accordance with the manufacturer’s protocol. The resulting data were expressed as mean ± SD from three independent experiments performed in triplicate.

In the case of CCOc1cccc2oc(C(C)=O)c(CBr)c12 [Compound 8, 1-[3-(Bromomethyl)-4-Ethoxy-1-Benzofuran-2-yl]Ethanone], the IC50 [1] is reported as over 100 µM, the IC50 [2] is reported as over 100 µM and the “Cell Number (×10^6)” value [3] is reported as 0.83 ± 0.12 ×10^6. The “Il-6 Concentration in K562 Cells in 72 h” value [4] was 6.958 ± 3.623 and the “Reduction of the level of IL-6” value [4] was 40%.

With COc1cc(OC)c2c(CBr)c(C(C)=O)oc2c1 [Compound 6, 1-[3-(Bromomethyl)-4,6-Dimethoxy-1-Benzofuran-2-yl]Ethanone] the IC50 [1] was over 100 µM, the IC50 [2] was over 100 µM and the “Reduction of total cell number” value ([3]; K562, IC50 concentration, compared to control) was 13%. The “Cell Number (×10^6)” value [3] was 0.62 ± 0.12 ×10^6, the “Il-6 Concentration in K562 Cells in 72 h” value [4] was 5.791 ± 2.048 and the “Reduction of the level of IL-6” value [4] was 50%.
